From paper PMC3922537 (Organic & biomolecular chemistry, 2013)

Test system: CYP76AH4
Assay: in vitro hydroxylation assay of recombinant enzyme, GC-MS
Assay type: cell-based, Salvia rosmarinus
Details: C12-hydroxylation to ferruginol; enzyme preparation not described in main text

Km: 25 ± 6 µM
Compound: CC(C)c1ccc2c(c1)CC[C@H]1C(C)(C)CCC[C@]21C [compound 3, abietatriene]
